Publication PMC10799935, “Discovery of a peripheral 5HT2A antagonist as a clinical candidate for metabolic dysfunction-associated steatohepatitis” (Nature Communications, 2024)
Values joined by “and” are separate entries in the source; they are usually repeats but may differ in a detail not shown here. Identical values can stand only once. Values belong to the compound of their own block, whether it stands above or below them.

Assays:
[1] = molecular target: 5HT2A (Homo sapiens, UniProt P28223); experiment: Human 5HT2A inhibition assay (FLIPR calcium 6, 5HT stimulus, stably transfected HEK293 cells); format: cell-based; parameters: expressed in transfected cells; host or cells: HEK293; conditions: for inhibition at 1 µM: HEK293, 1 μM, read-out: % Inhibition at 1 μM (SD)
Sequence of 5HT2A (P28223 whole entry): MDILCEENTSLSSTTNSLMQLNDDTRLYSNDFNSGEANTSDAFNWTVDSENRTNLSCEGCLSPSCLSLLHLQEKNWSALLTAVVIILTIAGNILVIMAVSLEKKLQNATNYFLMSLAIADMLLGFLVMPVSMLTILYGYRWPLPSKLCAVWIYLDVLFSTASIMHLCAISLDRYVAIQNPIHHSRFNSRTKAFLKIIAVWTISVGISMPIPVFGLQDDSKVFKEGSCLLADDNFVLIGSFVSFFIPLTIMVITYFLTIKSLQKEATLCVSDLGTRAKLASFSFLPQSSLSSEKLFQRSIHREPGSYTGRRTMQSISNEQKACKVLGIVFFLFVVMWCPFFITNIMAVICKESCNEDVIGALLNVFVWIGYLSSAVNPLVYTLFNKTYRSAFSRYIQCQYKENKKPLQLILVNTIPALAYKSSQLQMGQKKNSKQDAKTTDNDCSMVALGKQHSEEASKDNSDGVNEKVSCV
Procedure: The derivatives were evaluated at a concentration of 1 μM for their antagonist activity on the 5HT2A receptor (Tables 1–3)[33],[34]. […] The cells were stained with 100 μL of cytosolic calcium dye using the FLIPR calcium 6 assay solution (Molecular devices, #R8190) supplemented with 2.5 mM probenecid (Sigma; P8761) and incubated for 1 h at 37 °C. After 1 h, the designated amount of the compound was treated in each well and incubated for another 1 h at 37 °C. […] Experimental conditions for the 5HT subtypes can be found in the Supporting Information (Supplementary Table 1).

[2] = system: HFD-fed C57BL/6J mice; experiment: DIO mice: blood profiling (serum cholesterol, triglyceride); format: in vivo, mouse; conditions: PO; for Blood Biochemistry CHO, individual animals / Blood Biochemistry TG, individual animals: DIO C57BL/6J mice, one value per animal; for Blood Biochemistry CHO, individual animals: serum total cholesterol; for Blood Biochemistry TG, individual animals: serum; for Serum TG levels, group mean / Serum total cholesterol levels (CHO), group mean: DIO mice
Procedure: Blood samples were obtained by cardiac puncture, and plasma was isolated. Blood profiling was performed by GC Pharma (Green Cross Corporation). Plasma TG and cholesterol were detected with an in vitro enzymatic colorimetric assay (CHOL2 and TRIGL; Roche, Germany) using a Cobas 8000 clinical analyzer with a c702 module (Roche).

[3] = system: lipogenesis-related genes; experiment: DIO mice: qRT-PCR of lipogenesis-related genes in liver; format: in vivo, mouse; conditions: DIO, PO, fold vs vehicle; for Fasn (Fold), Mean / Htr2a (Fold), Mean / Pparg (Fold), Mean / Srebp1c (Fold), Mean: group mean; for Fasn (Fold) / Htr2a (Fold) / Pparg (Fold) / Srebp1c (Fold): individual mouse
Procedure: Total RNA extractions from harvested tissues were performed using TRIzol according to the manufacturer’s protocol. After TURBO DNase (Invitrogen) treatment, 2 μg of total RNA was used to generate complementary DNA with a High-Capacity cDNA Reverse Transcription Kit (Thermo Fisher Scientific). Quantitative RT-PCR was performed with Fast SYBR Green Master Mix (Thermo Fisher Scientific) and a Viia 7 Real-time PCR System (Thermo Fisher Scientific) according to the manufacturer’s instructions. Gene expression was relatively quantified based on the delta-delta Ct (threshold cycle) method with the beta-actin gene as a reference gene. The sequence of primers can be found in the Supporting Information (Supplementary Table 2).

[4] = system: HFD-fed C57BL/6J mice; experiment: DIO mice: quantification of hepatic triglyceride; format: in vivo, mouse; conditions: PO, liver; for Hepatic TG Levels, TG, individual animals / Hepatic TG Levels, TG per protein, individual animals: DIO C57BL/6J mice, one value per animal; for Hepatic TG Levels, TG, individual animals / Hepatic TG Levels, TG, group mean: not normalised; for Hepatic TG Levels, TG per protein, group mean / Hepatic TG Levels, TG, group mean: DIO mice
Procedure: Liver tissues were homogenized in 5% NP-40 using FastPrep-24. To solubilize fat, the homogenates were heated to 95 °C for 5 min and cooled at 23 °C, and repeated. Triglyceride Reagent (Sigma-Aldrich) or DW was added and incubated at 37 °C for 30 min to hydrolyze TG into glycerol. For the colorimetric assay of hydrolyzed TG levels, samples were incubated with Free Glycerol Reagent (Sigma-Aldrich) at 37 °C for 5 min. Differences in absorbance at 540 nm between hydrolyzed or non-hydrolyzed TG were quantified using a glycerol standard (Sigma-Aldrich). […]

[5] = system: HFD-fed C57BL/6J mice; experiment: DIO mice: liver histology (H&E), NAFLD activity score (steatosis, inflammation, ballooning); format: in vivo, mouse; parameters: key to Steatosis (NAFLD Activity Score), individual animals / Steatosis score, group mean: steatosis score 0-3 (0 <5% to 3 >66% fat accumulation); conditions: for Ballooning (NAFLD Activity Score), individual animals / Inflammation (NAFLD Activity Score), individual animals / Steatosis (NAFLD Activity Score), individual animals / Total Activity (Total NAFLD Activity Score), individual animals: DIO C57BL/6J mice, one value per animal; for Hepatocyte ballooning score, Mean Diff. (Vehicle vs. treated): Dunnett's multiple comparisons test
Text: Epididymal, inguinal, and liver were harvested, fixed in 10% (w/v) neutral buffered formalin solution (Sigma-Aldrich), and embedded in paraffin. Five-micron-thick tissue sections were deparaffinized, rehydrated, and stained with hematoxylin and eosin (H&E)[10]. The total NAFLD activity score (NAS) is a widely used measure of grading for steatosis, lobular inflammation, and ballooning. The total NAS ranges from 0-8 and is the sum of unweighted scores for steatosis (0: <5%, 1: 5 ~ 33%, 2: 33 ~ 66%, 3: >66% fat accumulation in the liver), lobular inflammation (0: no foci inflammation in x200 field, 1: <2 foci inflammation, 2: 2 ~ 4 foci inflammation, 3: >4 foci inflammation), and hepatocellular ballooning (0: none, 1: few ballooning cells, 2: prominent ballooning cells). MASH was diagnosed when NAS was >5, while non-MASH was diagnosed when NAS was <4. According to the MASH CRN scoring system, a certified pathologist determined the NAS[39]. The histological scoring was performed blindly, without knowledge of any other information.

[6] = DIO mice, PO, 10mpk, mean, 10 mg/kg

Compound: O=C1Cc2cc(C(=O)CN3CCC(=C4c5ccc(Cl)cc5CCc5cccnc54)CC3)ccc2N1 [Compound 8b]
% Inhibition at 1 μM (SD) [1]: 68.34 ± 2.78%
inhibition at 1 µM [1]: 68%

Compound: Cc1nc2n(c(=O)c1CCN1CCC(=C3c4ccc(Cl)cc4CCc4cccnc43)CC1)CCC[C@@H]2O (single isomer, unassigned) [22 f]
% Inhibition at 1 μM (SD) [1]: 96.07 ± 1.87%

Compound: Cc1nc2n(c(=O)c1CCN1CCC(=C3c4ccc(Cl)cc4CCc4cccnc43)CC1)CCCC2O (racemic) [GM106]
Blood Biochemistry CHO, individual animals ([2]; 5mpk, 5 mg/kg): 245.45 mg/dL and 237.41 mg/dL and 246.17 mg/dL and 215.59 mg/dL and 143.17 mg/dL and 210.2 mg/dL and 246.37 mg/dL
Blood Biochemistry TG, individual animals ([2]; 5mpk, 5 mg/kg): 80.27 mg/dL and 61.12 mg/dL and 86.84 mg/dL and 48.55 mg/dL and 85.94 mg/dL and 70.5 mg/dL and 70.39 mg/dL
Blood Biochemistry CHO, individual animals ([2]; 10mpk, 10 mg/kg): 190.51 mg/dL and 195.99 mg/dL and 228.58 mg/dL and 208.99 mg/dL and 197.21 mg/dL and 184.2 mg/dL
Blood Biochemistry TG, individual animals ([2]; 10mpk, 10 mg/kg): 45.42 mg/dL and 58.97 mg/dL and 70.76 mg/dL and 76.11 mg/dL and 81.65 mg/dL and 74.22 mg/dL
Serum TG levels, group mean ([2]; 5mpk): 71.94 mg/dL
Serum total cholesterol levels (CHO), group mean ([2]; 5mpk, 5 mg/kg): 220.62 mg/dL
Serum TG levels, group mean ([2]; 10mpk): 67.86 mg/dL
Serum total cholesterol levels (CHO), group mean ([2]; 10mpk, 10 mg/kg): 200.91 mg/dL
Fasn (Fold), Mean ([3]; 5mpk, 7 mice): 0.745
Htr2a (Fold), Mean ([3]; 5mpk, 7 mice): 0.510
Pparg (Fold), Mean ([3]; 5mpk, 7 mice): 0.893
Srebp1c (Fold), Mean ([3]; 5mpk, 7 mice): 0.768
Fasn (Fold) ([3]; 5mpk, 5 mg/kg): 0.6490 and 1.2211 and 0.8546 and 0.7608 and 0.3082 and 0.7010 and 0.7176
Htr2a (Fold) ([3]; 5mpk, 5 mg/kg): 0.4721 and 0.7255 and 0.4948 and 0.4297 and 0.7599 and 0.2475 and 0.4420
Pparg (Fold) ([3]; 5mpk, 5 mg/kg): 0.9158 and 1.2274 and 0.7611 and 0.5677 and 1.3805 and 0.7174 and 0.6847
Srebp1c (Fold) ([3]; 5mpk, 5 mg/kg): 0.9242 and 0.7728 and 0.8708 and 0.7607 and 0.6589 and 0.3460 and 1.0400
Fasn (Fold), Mean ([3]; 10mpk, 6 mice): 0.560
Htr2a (Fold), Mean ([3]; 10mpk, 6 mice): 0.414
Pparg (Fold), Mean ([3]; 10mpk, 6 mice): 1.032
Srebp1c (Fold), Mean ([3]; 10mpk, 6 mice): 0.496
Fasn (Fold) ([3]; 10mpk, 10 mg/kg): 0.3894 and 0.5870 and 0.6740 and 0.7101 and 0.3290 and 0.6694
Htr2a (Fold) ([3]; 10mpk, 10 mg/kg): 0.4677 and 0.2891 and 0.2762 and 0.4976 and 0.4041 and 0.5480
Pparg (Fold) ([3]; 10mpk, 10 mg/kg): 0.7506 and 1.1267 and 1.0050 and 0.9956 and 1.2727 and 1.0412
Srebp1c (Fold) ([3]; 10mpk, 10 mg/kg): 0.4795 and 0.5418 and 0.5388 and 0.5056 and 0.4290 and 0.4815
Hepatic TG Levels, TG, individual animals ([4]; 5mpk, 5 mg/kg): 0.07575 mg/mL and 0.09502 mg/mL and 0.09001 mg/mL and 0.07002 mg/mL and 0.1053 mg/mL and 0.1094 mg/mL and 0.1015 mg/mL
Hepatic TG Levels, TG per protein, individual animals ([4]; 5mpk, 5 mg/kg): 71.5854 mg/g protein and 74.7025 mg/g protein and 51.6625 mg/g protein and 103.84 mg/g protein and 123.461 mg/g protein and 75.9936 mg/g protein and 58.3099 mg/g protein
Hepatic TG Levels, TG, individual animals ([4]; 10mpk, 10 mg/kg): 0.06336 mg/mL and 0.0751 mg/mL and 0.08726 mg/mL and 0.101 mg/mL and 0.08773 mg/mL and 0.06215 mg/mL
Hepatic TG Levels, TG per protein, individual animals ([4]; 10mpk, 10 mg/kg): 41.8429 mg/g protein and 54.7941 mg/g protein and 65.6095 mg/g protein and 56.3849 mg/g protein and 74.0866 mg/g protein and 34.3504 mg/g protein
Hepatic TG Levels, TG per protein, group mean ([4]; 5mpk): 79.94 mg/g protein
Hepatic TG Levels, TG, group mean ([4]; 5mpk): 0.09 mg/mL
Hepatic TG Levels, TG per protein, group mean ([4]; 10mpk): 54.51 mg/g protein
Hepatic TG Levels, TG, group mean ([4]; 10mpk): 0.08 mg/mL
Ballooning (NAFLD Activity Score), individual animals ([5]; PO, 5mpk, 5 mg/kg): 2.00 and 1.00 and 0.00
Inflammation (NAFLD Activity Score), individual animals ([5]; PO, 5mpk, 5 mg/kg): 2.00 and 1.00
Steatosis (NAFLD Activity Score), individual animals ([5]; PO, 5mpk, 5 mg/kg): 3.00 and 2.00 and 1.00
Total Activity (Total NAFLD Activity Score), individual animals ([5]; PO, 5mpk, 5 mg/kg): 7.00 and 5.00 and 3.00 and 6.00 and 2.00 and 4.00
Ballooning (NAFLD Activity Score), individual animals ([5]; PO, 10mpk, 10 mg/kg): 0.00 and 1.00 and 2.00
Inflammation (NAFLD Activity Score), individual animals ([5]; PO, 10mpk, 10 mg/kg): 1.00 and 2.00 and 0.00
Steatosis (NAFLD Activity Score), individual animals ([5]; PO, 10mpk, 10 mg/kg): 0.00 and 1.00
Total Activity (Total NAFLD Activity Score), individual animals ([5]; PO, 10mpk, 10 mg/kg): 1.00 and 3.00 and 5.00 and 0.00
Hepatocyte ballooning score, Mean Diff. (Vehicle vs. treated) ([5]; DIO mice, 5mpk): 0.2857
Hepatocyte ballooning score, Mean Diff. (Vehicle vs. treated) ([5]; DIO mice, 10mpk): 1
Steatosis score, group mean ([5]; DIO mice, PO, 5mpk, mean, 5 mg/kg): 2.0
Steatosis score, group mean ([5]; DIO mice, PO, 10mpk, mean): 0.5
Hepatocyte ballooning score, group mean [5, 6]: 1
Lobular inflammation score, group mean [5, 6]: 1.0

Now from value to compound:

IC50 [1]: 0.0814 µM
inhibition at 1 µM [1]: 83.2 ± 1.98%
Compound: O=C(CN1CCC(=C2c3ccc(Cl)cc3CCc3cccnc32)CC1)c1ccc(Br)cc1 [Compound 8a]

% Inhibition at 1 μM (SD) [1]: 94.47 ± 1.53%
Compound: O=C1Cc2cc(CCN3CCC(=C4c5ccc(Cl)cc5CCc5cccnc54)CC3)c(Cl)cc2N1 [Compound 11a]

IC50 [1]: 0.061 µM
IC50 (nM) [1]: less potency than compound 11c
inhibition at 1 µM [1]: 89.2 ± 11%
Compound: Cc1nc2n(c(=O)c1CCN1CCC(=C3c4ccccc4CCc4cccnc43)CC1)CCCC2O (stereo not shown) [Compound 11e]
